Source: US20170065593A1, “Combination” (Novartis AG, priority 2009, published 2017)
Like-named read-outs stand apart in the source and are kept apart here.

Experiments:
[1] = system: 95 cancer cell lines
Method: (Compound A) or mTOR inhibitor (mTORi, Rapamycin) alone or a combination of both agents at a ratio of 1:2 (MEKi:mTORi) and cell proliferation/death was measured after 3 day drug exposure. Briefly, cells were plated in 384-well plates at 500 cells/well in culture media appropriate for each cell type, supplemented with 10% FBS and 1% penicillin/streptomycin, and incubated overnight at 37° C., 5% CO2. […] (two fold dilutions ranging from 7.3 uM-0.014 nM) or with mTOR inhibitor (two fold dilutions ranging from 14.6 uM-0.112 nM) or in combination with both compounds and incubated for 72 hours. Cell growth was measured using the CellTiterGlo (CTG) reagent (Promega) according to the manufacturer's protocol. Data were analyzed using the XLfit (IDBS Ltd.) curve-fitting tool for Microsoft Excel. Growth IC50 (gIC50) and Ymin values were generated using a four-parameter curve fit algorithm (XLFit algorithm #205).
Results were expressed as a percent of the t=0 and plotted against the compound concentration. The T=0 value is normalized to 100% and represents the number of cells at the time of compound addition. […] Formula below was used to calculate mutually exclusive combination index (CI). Data were reported as log CI, where the logarithm value of CI was calculated.
CI=IC50 of a+b/IC50 of a+IC50 of b+a/IC50 of b
Synergy is defined as CI<1, additivity as CI=1 and antagonism as CI>1. Considering the variability of these proliferation assays we arbitrarily defined log CI>0.1 as antagonism, between −0.1 and 0.1 as no significant effect and <−0.1 as synergy.

[2] = system: A549 lung cancer cell line; assay: Assay 2: cell growth (CellTiterGlo, 72 hours), Ymin; assay type: cell-based; details: percent of T=0 (T=0 = 100%)
Method: FIG. 5 depicts the effect of MEK inhibitor, mTOR inhibitor and their combination on A549 lung cancer cell line growth. […] Cells were treated with MEK inhibitor (two fold dilutions ranging from 7.3 uM-0.014 nM) or with mTOR inhibitor (two fold dilutions ranging from 14.6 uM-0.112 nM) or in combination with both compounds and incubated for 72 hours. Cell growth was measured using the CellTiterGlo (CTG) reagent (Promega) according to the manufacturer's protocol. Data were analyzed using the XLfit (IDBS Ltd.) curve-fitting tool for Microsoft Excel. Growth IC50 (gIC50) and Ymin values were generated using a four-parameter curve fit algorithm (XLFit algorithm #205). Results were expressed as a percent of the t=0 and plotted against the compound concentration. […] Formula below was used to calculate mutually exclusive combination index (CI). Data were reported as log CI, where the logarithm value of CI was calculated. […] Similar analysis was performed for all cell lines and Ymin results are depicted in FIG. 6.

Compound: CO[C@H]1C[C@@H]2CC[C@@H](C)[C@@](O)(O2)C(=O)C(=O)N2CCCC[C@H]2C(=O)O[C@H]([C@H](C)C[C@@H]2CC[C@@H](O)[C@H](OC)C2)CC(=O)[C@H](C)/C=C(\C)[C@@H](O)[C@@H](OC)C(=O)[C@H](C)C[C@H](C)/C=C/C=C/C=C/1C [Rapamycin]
- % of cells with cytotoxic response ([1]; KRAS WT / PI3K WT cell lines): 10%
- % of cells with cytotoxic response ([1]; KRAS WT / PI3K mutant cell lines): 5%
- % of cells with cytotoxic response ([1]; KRAS WT cell lines): 10%
- % of cells with cytotoxic response ([1]; KRAS mutant / PI3K WT cell lines): 11%
- % of cells with cytotoxic response ([1]; KRAS mutant / PI3K mutant cell lines): 6%
- % of cells with cytotoxic response ([1]; KRAS mutant cell lines): 8%
- % of cells with cytotoxic response ([1]; PI3K WT cell lines): 8%
- % of cells with cytotoxic response ([1]; PI3K mutant cell lines): 12%
- percentage of cell undergoing death (cytotoxic) ([1]; all cell lines, Ymin below T=0): 9.5%
- cell lines undergoing death ([1]; single agent, across KRAS and PI3K mutational subgroups): ≤ 11%
- Ymin (lower Y value at any compound concentration) [2]: 487%
